Earlier results, collected in patent US20240315993A1, “ANTIPARASITIC COMPOUNDS” (Intervet Inc., priority 2021, published 2024).

Legend:
[1] = tested on: Yellow Fever Mosquito (Aedes aegypti); conditions: Aedes aegypti larvae about 1 day old, 96-well plate, scored after 3 days; cited from earlier work
[2] = tested on: Beet Armyworm (Spodoptera exigua); conditions: 128-well diet tray, average of eight wells, cited from earlier work; for Test A: Bioassay on BAW, percent mortality rating: Beet Armyworm second instar larvae, 50 μg/cm^2, five to seven days; for Test A: percent mortality of Beet Armyworm (BAW) larvae, rating: 50 μg/cm^2 on artificial diet, second instar larvae, 5-7 days
[3] = tested on: Cabbage Looper (Trichoplusia ni); conditions: 128-well diet tray, average of eight wells, cited from earlier work; for Test B: Bioassay on CL, percent mortality rating: Cabbage Looper second instar larvae, 50 μg/cm^2, five to seven days; for Test B: percent mortality of Cabbage Looper (CL) larvae, rating: 50 μg/cm^2 on artificial diet, second instar larvae, 5-7 days

SMILES	Test C: Bioassay on Yellow Fever Mosquito, mortality rating [1]	Test A: Bioassay on BAW, percent mortality rating [2]	Test B: Bioassay on CL, percent mortality rating [3]	Test A: percent mortality of Beet Armyworm (BAW) larvae, rating [2]	Test B: percent mortality of Cabbage Looper (CL) larvae, rating [3]
O=C(Nc1ccc(-n2ccnc2)cc1)c1cc(NC(=O)[C@H]2[C@H](c3cc(Cl)cc(Cl)c3)C2(Cl)Cl)ccc1Cl [c1]	A (80-100)	A (50-100)	A (50-100)		
O=C(Nc1ccc(-n2cncn2)cc1)c1cc(NC(=O)[C@H]2[C@H](c3cc(Cl)cc(Cl)c3)C2(Cl)Cl)ccc1Cl [c2]	A (80-100)	A (50-100)	A (50-100)		
Cc1cc(C(F)(C(F)(F)F)C(F)(F)F)cc(C)c1NC(=O)c1cc(NC(=O)[C@H]2[C@H](c3cc(Cl)cc(Cl)c3)C2(Cl)Cl)ccc1Cl [c3]	D (No activity noticed in this bioassay)	A (50-100)	A (50-100)		
O=C(Nc1ccc(NC(=O)C2CC2)cc1)c1cc(NC(=O)[C@H]2[C@H](c3cc(Cl)cc(Cl)c3)C2(Cl)Cl)ccc1Cl [c4]	A (80-100)	A (50-100)	A (50-100)		
O=C(CC1CC1)Nc1ccc(NC(=O)c2cc(NC(=O)[C@H]3[C@H](c4cc(Cl)cc(Cl)c4)C3(Cl)Cl)ccc2Cl)cc1 [c5]	A (80-100)	A (50-100)	A (50-100)		
COCC1(C(=O)Nc2ccc(NC(=O)c3cc(NC(=O)[C@H]4[C@H](c5cc(Cl)cc(Cl)c5)C4(Cl)Cl)ccc3Cl)cc2)CC1 [c6]	A (80-100)	A (50-100)	A (50-100)		
O=C(Nc1ccc(NC(=O)C2CC2(F)F)cc1)c1cc(NC(=O)[C@H]2[C@H](c3cc(Cl)cc(Cl)c3)C2(Cl)Cl)ccc1Cl (stereo partly shown) [c7]	A (80-100)	A (50-100)	A (50-100)		
CC(C)(C)CC(=O)Nc1ccc(NC(=O)c2cc(NC(=O)[C@H]3[C@H](c4cc(Cl)cc(Cl)c4)C3(Cl)Cl)ccc2Cl)cc1 [c8]	D (No activity noticed in this bioassay)	A (50-100)	A (50-100)		
O=C(Nc1ccc(-n2cnnc2)cc1)c1cc(NC(=O)[C@H]2[C@H](c3cc(Cl)cc(Cl)c3)C2(Cl)Cl)ccc1Cl [c9]	A (80-100)	A (50-100)	A (50-100)		
CC(=O)Nc1ccc(NC(=O)c2cc(NC(=O)[C@H]3[C@H](c4cc(Cl)cc(Cl)c4)C3(Cl)Cl)ccc2Cl)c(C)c1 [c10]	A (80-100)	A (50-100)	A (50-100)		
O=C(Nc1ccc2ncsc2c1)c1cc(NC(=O)C2C(c3cc(Cl)cc(Cl)c3)C2(Cl)Cl)ccc1Cl (stereo not shown) [c11]	A (80-100)	A (50-100)	A (50-100)		
O=C(Nc1ccc2[nH]ccc2c1)c1cc(NC(=O)C2C(c3cc(Cl)cc(Cl)c3)C2(Cl)Cl)ccc1Cl (stereo not shown) [c12]	A (80-100)	A (50-100)	A (50-100)		
O=C(Nc1ccc2cccnc2c1)c1cc(NC(=O)C2C(c3cc(Cl)cc(Cl)c3)C2(Cl)Cl)ccc1Cl (stereo not shown) [c13]	B (More than 0 - Less than 80)	A (50-100)	A (50-100)		
O=C(Nc1cnc2cc[nH]c2c1)c1cc(NC(=O)C2C(c3cc(Cl)cc(Cl)c3)C2(Cl)Cl)ccc1Cl (stereo not shown) [c14]	B (More than 0 - Less than 80)	A (50-100)	A (50-100)		
O=C(Nc1ccc2nc(Cl)[nH]c2c1)c1cc(NC(=O)C2C(c3cc(Cl)cc(Cl)c3)C2(Cl)Cl)ccc1Cl (stereo not shown) [c15]	B (More than 0 - Less than 80)	A (50-100)	A (50-100)		
COC(=O)Nc1ccc(NC(=O)c2cc(NC(=O)[C@H]3[C@H](c4cc(Cl)cc(Cl)c4)C3(Cl)Cl)ccc2Cl)cc1 [c16]	B (More than 0 - Less than 80)	A (50-100)	A (50-100)		
O=C(Nc1cc(C(F)(F)F)[nH]n1)c1cc(NC(=O)[C@H]2[C@H](c3cc(Cl)cc(Cl)c3)C2(Cl)Cl)ccc1Cl [c17]	D (No activity noticed in this bioassay)	A (50-100)	A (50-100)		

SMILES	Test C: Bioassay on Yellow Fever Mosquito, mortality rating [1]	Test A: Bioassay on BAW, percent mortality rating [2]	Test B: Bioassay on CL, percent mortality rating [3]	Test A: percent mortality of Beet Armyworm (BAW) larvae, rating [2]	Test B: percent mortality of Cabbage Looper (CL) larvae, rating [3]
O=C(Nc1ccc(-n2cccn2)cc1)c1cc(NC(=O)C2C(c3cc(Cl)cc(Cl)c3)C2(Cl)Cl)ccc1Cl (stereo not shown) [c18]	A (80-100)	A (50-100)	A (50-100)		
O=C(Nc1nc2ccccc2s1)c1cc(NC(=O)C2C(c3cc(Cl)cc(Cl)c3)C2(Cl)Cl)ccc1Cl (stereo not shown) [c19]	B (More than 0 - Less than 80)	A (50-100)	A (50-100)		
COc1c(Cl)cc(C2C(C(=O)Nc3ccc(Cl)c(C(=O)Nc4ccc(NC(C)=O)cc4)c3)C2(Cl)Cl)cc1Cl (stereo not shown) [c20]	D (No activity noticed in this bioassay)	A (50-100)	A (50-100)		
CNc1ccc(NC(=O)c2cc(NC(=O)C3C(c4cc(Cl)c(OC)c(Cl)c4)C3(Cl)Cl)ccc2Cl)cc1 (stereo not shown) [c21]	D (No activity noticed in this bioassay)	A (50-100)	A (50-100)		
O=C(Nc1nnn[nH]1)c1cc(NC(=O)[C@H]2[C@H](c3cc(Cl)cc(Cl)c3)C2(Cl)Cl)ccc1Cl [c22]	B (More than 0 - Less than 80)	A (50-100)	A (50-100)		
O=C(Nc1ccc(-c2ncco2)cc1)c1cc(NC(=O)C2C(c3cc(Cl)cc(Cl)c3)C2(Cl)Cl)ccc1Cl (stereo not shown) [c23]	D (No activity noticed in this bioassay)	A (50-100)	A (50-100)		
Cc1ccc(-c2csc(NC(=O)c3cc(NC(=O)[C@H]4[C@H](c5cc(Cl)cc(Cl)c5)C4(Cl)Cl)ccc3Cl)n2)cc1 [c24]	D (No activity noticed in this bioassay)	A (50-100)	A (50-100)		
O=C(Nc1c[nH]c(=O)[nH]c1=O)c1cc(NC(=O)[C@H]2[C@H](c3cc(Cl)cc(Cl)c3)C2(Cl)Cl)ccc1Cl [c25]	B (More than 0 - Less than 80)	A (50-100)	A (50-100)		
O=C(Nc1nc2ccccc2o1)c1cc(NC(=O)C2C(c3cc(Cl)cc(Cl)c3)C2(Cl)Cl)ccc1Cl (stereo not shown) [c26]	A (80-100)	A (50-100)	A (50-100)		
O=C(Nc1ccc2ncoc2c1)c1cc(NC(=O)C2C(c3cc(Cl)cc(Cl)c3)C2(Cl)Cl)ccc1Cl (stereo not shown) [c27]	A (80-100)	A (50-100)	A (50-100)		
O=C(Nc1ccc2sccc2c1)c1cc(NC(=O)C2C(c3cc(Cl)cc(Cl)c3)C2(Cl)Cl)ccc1Cl (stereo not shown) [c28]	A (80-100)	A (50-100)	A (50-100)		
Nc1cccc(NC(=O)c2cc(NC(=O)C3C(c4cc(Cl)cc(Cl)c4)C3(Cl)Cl)ccc2Cl)c1 (stereo not shown) [c29]	A (80-100)	A (50-100)	A (50-100)		
CNc1cccc(NC(=O)c2cc(NC(=O)C3C(c4cc(Cl)cc(Cl)c4)C3(Cl)Cl)ccc2Cl)c1 (stereo not shown) [c30]	A (80-100)	A (50-100)	A (50-100)		
Cc1ccc(NC(=O)c2cc(NC(=O)C3C(c4cc(Cl)cc(Cl)c4)C3(Cl)Cl)ccc2Cl)cc1N (stereo not shown) [c31]	B (More than 0 - Less than 80)	A (50-100)	A (50-100)		
Cc1cc2cc(NC(=O)c3cc(NC(=O)C4C(c5cc(Cl)cc(Cl)c5)C4(Cl)Cl)ccc3Cl)ccc2[nH]1 (stereo not shown) [c32]	A (80-100)	A (50-100)	A (50-100)		
CC(=O)OCCNc1ccc(NC(=O)c2cc(NC(=O)C3C(c4ccc(F)c(C(F)(F)F)c4)C3(Cl)Cl)ccc2Cl)c(C)c1 (stereo not shown) [c119]				A (50-100)	A (50-100)
Cc1cc(NCCO)ccc1NC(=O)c1cc(NC(=O)C2C(c3ccc(F)c(C(F)(F)F)c3)C2(Cl)Cl)ccc1Cl (stereo not shown) [c120]				A (50-100)	A (50-100)
